Values quoted from earlier work, collected in US11439647B2 (Janssen Pharmaceutica NV, priority 2020, dated 2022).

- water solubility: extreme low
Compound: CCCCCCCCCCCCCCCC(=O)OC1CCCn2c1nc(C)c(CCN1CCC(c3noc4cc(F)ccc34)CC1)c2=O (racemic) [paliperidone palmitate, (±)-3-[2-[4-(6-fluoro-1,2-benzisoxazol-3-yl)-1-piperidinyl]ethyl]-6,7,8,9-tetrahydro-2-methyl-4-oxo-4H-pyrido[1,2-c]pyrimidin-9-yl hexadecanoate]
